“Also recorded” adds a separate entry of the source.
What was measured:
U251 glioma cell line = experiment: Chemical library radiosensitizer screen (MTS assay, paired plates 4 Gy / unirradiated); type: cell-based, human; conditions: U251, 8 hours at 2.5 μM, MTS four days later
Description: Six hundred U251 cells were plated per well in 96 well plates. Cells in each well were then treated with a different compound from the Nanosyn library for 8 hours at 2.5 μM concentration. Treatment was performed with paired 96-well plates; one plate was exposed to 4 Gy and the other plate was an unirradiated control. One hour after irradiation, the medium was replaced with fresh medium alone. Four days later, the MTS assay was used to evaluate cell survival. Absorbance was measured at 490 nm with a microplate reader (Sprectramax, Molecular Devices, Sunnyvale, Calif.). Radiosensitivity factors (RSF) were calculated according to the following formula for each compound tested with the assay:
[formula] Survival Assays
The small chemical compound chemical library (Nanosyn, Inc.) was replicated in a 96-well format and compounds were dissolved in DMSO at a concentration of […]. Using the U251 glioma cell line, the radiosensitizing capability of 870 compounds was initially assayed within the library. The assay was optimized in terms of the number of cells, radiation dose used, and the number of days incubated so that a decrease in survival could be assessed. […] The structure of three novel radiosensitizing compounds is depicted in FIG. 1B.

[1] = system: Nontransformed human astrocytes (NHA); experiment: Modified MTS survival assay on normal human astrocytes after IR; type: cell-based; conditions: 5 μM, 8 hours or 12 hours pretreatment, versus DMSO
Description: Clonogenic survival assays were performed as described by Koumenis, et al., 2002, (Mol. Cell Biol. 22:7405-16), which reference is incorporated herein in its entirety. U251, HT-29, or A549 cells were plated at different densities in triplicate, treated with NS-123 or DMSO (alone) and irradiated 4, 8, or 12 hours later with a range of doses using ^137Cs γ-rays at a dose rate of ˜4 Gy/minute (min). One hour after irradiation, the medium was replaced with fresh medium without NS-123 or DMSO. The cells were fixed 7-14 days after IR and stained with crystal violet. Colonies greater than 50 cells were then counted and normalized against the non-irradiated controls for each treatment. […] NHA cells were plated in 24-well plates in quadruplicate at equal density, treated with equal volumes of NS-123 or DMSO (alone) and irradiated as described above. One hour after irradiation, the medium was replaced with fresh ABM. Five days later, the MTS assay was used to evaluate cell survival as above.
The objective of any combination of therapeutic agents is to achieve an improved therapeutic result, which is a function both of tumor response and of normal tissue damage. No improvement in the therapeutic result of IR is gained utilizing a drug that increases the sensitivity of both tumor and normal cells to the same extent. […]

[2] = system: γ-H2AX, P-CHK2, P-ATM, P-DNA-PKcs in U251 cells; experiment: Immunoblotting of dsDNA damage-dependent signaling after IR; type: cell-based, human; conditions: U251, 30 μM 4 hours prior to IR, 6 hours after IR
Description: Following treatments, whole cell and nuclear extracts were prepared. Equal lysate volumes were loaded on 15% and 12% SDS-PAGE gels to assay for γ-H2AX and P-CHK2 proteins, respectively. To assay for P-ATM and P-DNA-PKcs protein, 30-50 μg of nuclear protein were diluted with an equal volume of 2×SDS and resolved with 6% SDS-PAGE gels. Proteins were transferred to polyvinylidene difluoride (PVDF) membranes and then incubated with either anti-γ-H2AX antibody (1:5000; Upstate, Charlottesville, Va.), anti-P-CHK2 antibody (1:1000; Cell Signaling, Beverly, Mass.), anti-phospho-ATM (pSer^1981) antibody (1:300 Calbiomchem, San Diego, Calif.), or anti-phospho-DNA-PKcs (T2609) antibody (1:500; Abcam, Cambridge, Mass.). To confirm equivalent loading and protein transfer, membranes were probed with mouse anti-human β-actin monoclonal antibody (Sigma) or anti-DNA-PKcs monoclonal antibody (25-4 at 1:5000; NeoMarkers, Fremont, Calif.). All membranes were then incubated with horseradish peroxidase-conjugated anti-mouse or anti-rabbit secondary antibodies (Santa Cruz Biotechnology). Immunoreactive bands were detected using ECL Plus chemiluminescence (Amersham Biosciences).
The levels of γ-H2AX, P-CHK2, P-ATM, and P-DNA-PKcs were assayed in U251 cells by immunoblotting at various time points after IR. Cells were treated with DMSO (control) or 30 μM NS-123 for 4 hours prior to IR. […]

SMILES: CCC(=O)c1ccc(Br)c([N+](=O)[O-])c1 [NS-123, 4′-bromo-3′-nitropropiophenone]
- average Radiosensitivity factor (RSF) (U251 glioma cell line): 4.62
- radiosensitization of normal human glial cells [1]: no significant increase in radiosensitization; also recorded: does not radiosensitize
- levels of γ-H2AX, P-CHK2, P-DNA-PKcs and P-ATM [2]: substantially higher levels
